Source: patent publication US4199570A, “1-N-Hetero containing aminoglycoside derivatives” (Shionogi & Co., Ltd., priority 1977, dated 1980)
Values after ≈ are worked out from the molar mass of the structure shown.

How the values were obtained:
[1] = system: kanamycin A resistant strains; conditions: cited from earlier work
[2] = compared with kanamycin A; cited from earlier work
[3] = system: Escherichia coli W-677/JR 762; test: MIC (Table 2); conditions: W677/JR762, read-out: Minimum Inhibitory Concentration (MIC)
[4] = system: Streptococcus pyogenes ATCC 10389; test: MIC (Table 2); conditions: ATCC10389, read-out: Minimum Inhibitory Concentration (MIC)
[5] = system: Escherichia coli W-677/JR 66; test: MIC (Table 2); conditions: W677/JR66, read-out: Minimum Inhibitory Concentration (MIC)
Proteus mirabilis Pm-5 = test: MIC (Table 2); conditions: PM5, read-out: Minimum Inhibitory Concentration (MIC)
Escherichia coli TB-705 = test: MIC (Table 2); format: cell-based; conditions: TB705, read-out: Minimum Inhibitory Concentration (MIC)
[6] = system: Enterobacter cloacae CI-38; test: MIC (Table 2); conditions: CI38, read-out: Minimum Inhibitory Concentration (MIC)
[7] = system: Citrobactor freundii Ct-31; test: MIC (Table 2); conditions: read-out: Minimum Inhibitory Concentration (MIC)
[8] = system: Staphylococcus aureus 80285; test: MIC (Table 2); conditions: Staphylococcus aureus, 80285, read-out: Minimum Inhibitory Concentration (MIC)
[9] = system: Serratia marcescens MA-26; test: MIC (Table 2); conditions: MA26, read-out: Minimum Inhibitory Concentration (MIC)
[10] = system: Escherichia coli W-677/JR 214; test: MIC (Table 2); conditions: W677/JR214, read-out: Minimum Inhibitory Concentration (MIC)
[11] = system: Pseudomonas aeruginosa PP-6; test: MIC (Table 2); conditions: PP6, read-out: Minimum Inhibitory Concentration (MIC)
Proteus inconstans In-27 = test: MIC (Table 2); format: cell-based; conditions: Providencia alcalifaciens, IN27, tobramycin resistant strain, read-out: Minimum Inhibitory Concentration (MIC)
[12] = system: Klebsiella pneumoniae Kl 38; test: MIC (Table 2); conditions: KL38, read-out: Minimum Inhibitory Concentration (MIC)
Sarcina lutea PCI 1001 = test: MIC (Table 2); format: cell-based; conditions: Micrococcus luteus, PCI1001, read-out: Minimum Inhibitory Concentration (MIC)
[13] = system: Pseudomonas aeruginosa PP-6; test: MIC (Table 3); format: cell-based; conditions: PP6, read-out: Minimum Inhibitory Concentration (MIC)
[14] = system: Escherichia coli W-677/JR-762; test: MIC (Table 3); conditions: W677/JR762, read-out: Minimum Inhibitory Concentration (MIC)
Proteus mirabilis TB-617 = test: MIC (Table 3); format: cell-based; conditions: TB617, read-out: Minimum Inhibitory Concentration (MIC)
[15] = system: Streptococcus pyogenes C-203; test: MIC (Table 3); conditions: C203, read-out: Minimum Inhibitory Concentration (MIC)

Row | Compound | effect against kanamycin A resistant strains [1] | toxicity [2] | MIC [3] [µg/mL] | MIC [4] [µg/mL] | MIC [5] [µg/mL] | MIC (Proteus mirabilis Pm-5) [µg/mL] | MIC (Escherichia coli TB-705) [µg/mL] | MIC [6] [µg/mL] | MIC [7] [µg/mL] | MIC [8] [µg/mL] | MIC [9] [µg/mL] | MIC [10] [µg/mL] | MIC [11] [µg/mL] | MIC (Proteus inconstans In-27) [µg/mL] | MIC [12] [µg/mL] | MIC (Sarcina lutea PCI 1001) [µg/mL] | MIC [13] [µg/mL] | MIC [14] [µg/mL] | MIC (Proteus mirabilis TB-617) [µg/mL] | MIC [15] [µg/mL]
1 | NCC[C@H](O)C(=O)N[C@@H]1C[C@H](N)[C@@H](O[C@H]2O[C@H](CN)[C@@H](O)[C@H](O)[C@H]2O)[C@H](O)[C@H]1O[C@H]1O[C@H](CO)[C@@H](O)[C@H](N)[C@H]1O [amikacin] | effective against kanamycin A resistant strains | approximately the same as kanamycin A | – | – | – | – | – | – | – | – | – | – | – | – | – | – | – | – | – | –
2 | NC[C@H]1O[C@H](O[C@H]2[C@H](O)[C@@H](O[C@H]3O[C@H](CO)[C@@H](O)[C@H](N)[C@H]3O)[C@H](NC(=O)C3(O)CNC3)C[C@@H]2N)[C@H](O)[C@@H](O)[C@@H]1O [Comp. (2), 1-N-(3-hydroxyazetidine-3-carbonyl)kanamycin A] | – | – | 12.5 (≈ 21.4 µM) | 50 (≈ 85.7 µM) | 6.25 (≈ 10.7 µM) | 6.25 (≈ 10.7 µM) | 12.5 (≈ 21.4 µM) | 3.13 (≈ 5.36 µM) | 3.13 (≈ 5.36 µM) | 12.5 (≈ 21.4 µM) | 12.5 (≈ 21.4 µM) | 3.13 (≈ 5.36 µM) | 6.25 (≈ 10.7 µM) | 6.25 (≈ 10.7 µM) | 1.56 (≈ 2.67 µM) | 12.5 (≈ 21.4 µM) | – | – | – | –
3 | NC[C@H]1O[C@H](O[C@H]2[C@H](O)[C@@H](O[C@H]3O[C@H](CO)[C@@H](O)[C@H](N)[C@H]3O)[C@H](N)C[C@@H]2N)[C@H](O)[C@@H](O)[C@@H]1O [KM-A, kanamycin A] | – | – | > 100 | 100 (≈ 206 µM) | > 100 | > 100 | > 100 | > 100 | > 100 | > 100 | > 100 | > 100 | > 100 | > 100 | > 100 | 12.5 (≈ 25.8 µM) | – | – | – | –
4 | NC[C@H]1O[C@H](O[C@H]2[C@H](O)[C@@H](O[C@H]3O[C@H](CO)[C@@H](O)[C@H](N)[C@H]3O)[C@H](N)C[C@@H]2N)[C@H](N)C[C@@H]1O [TOB, tobramycin] | – | – | 100 (≈ 214 µM) | 25 (≈ 53.5 µM) | 25 (≈ 53.5 µM) | 12.5 (≈ 26.7 µM) | 6.25 (≈ 13.4 µM) | 0.78 (≈ 1.67 µM) | 3.13 (≈ 6.69 µM) | 0.78 (≈ 1.67 µM) | 50 (≈ 107 µM) | 100 (≈ 214 µM) | > 100 | 12.5 (≈ 26.7 µM) | 1.56 (≈ 3.34 µM) | 12.5 (≈ 26.7 µM) | 100 (≈ 214 µM) | 25 (≈ 53.5 µM) | 6.2 (≈ 13.3 µM) | 6.2 (≈ 13.3 µM)
5 | NC[C@H]1O[C@H](O[C@H]2[C@H](O)[C@@H](O[C@H]3O[C@H](CO)[C@@H](O)[C@H](N)[C@H]3O)[C@H](NC(=O)C3(O)CNC3)C[C@@H]2N)[C@H](N)C[C@@H]1O [Comp. (1), 1-N-(3-hydroxyazetidine-3-carbonyl)tobramycin] | – | – | 3.13 (≈ 5.52 µM) | 25 (≈ 44.1 µM) | 3.13 (≈ 5.52 µM) | 1.56 (≈ 2.75 µM) | 3.13 (≈ 5.52 µM) | 0.78 (≈ 1.38 µM) | 1.56 (≈ 2.75 µM) | 0.78 (≈ 1.38 µM) | 6.25 (≈ 11 µM) | 3.13 (≈ 5.52 µM) | 3.13 (≈ 5.52 µM) | 12.5 (≈ 22.1 µM) | 0.78 (≈ 1.38 µM) | 3.13 (≈ 5.52 µM) | – | – | – | –
